Measured values from patent US9926284B2, “Substituted N-(1,2,4-triazol-3-yl)Arylcarboxamide compounds and their use as herbicides” (BASF SE, priority 2013, dated 2018).
Marks after values point to notes of the source that are not given here.

Experiments:
Type in all cases: in vivo
[1] = tested on: Alopecurus agrestis; experiment: greenhouse post-emergence treatment, herbicidal activity; conditions: 1000 g/ha, scale 0 to 100
Excerpt: (§1) The seeds of the test plants were sown separately for each species. For the post-emergence treatment, the test plants were first grown to a height of 3 to 15 cm, depending on the plant habit, and only then treated with the active ingredients which had been suspended or emulsified in water. For this purpose, the test plants were either sown directly and grown in the same containers, or they were first grown separately as seedlings and transplanted into the test containers a few days prior to treatment. Depending on the species, the plants were kept at 10-25° C. or 20-35° C. The test period extended over 2 to 4 weeks. During this time, the plants were tended, and their response to the individual treatments was evaluated. Evaluation was carried out using a scale from 0 to 100. 100 means no emergence of the plants, or complete destruction of at least the aerial moieties, and 0 means no damage, or normal course of growth. A good herbicidal activity is given at values of at least 70 and a very good herbicidal activity is given at values of at least 85. The plants used in the greenhouse experiments belonged to the following species: [table]

[2] = tested on: Echinochloa crus-galli; experiment: as above; conditions: 1000 g/ha, scale 0 to 100
Excerpt: as §1

[3] = tested on: Abutilon theophrasti; experiment: as above; conditions: 1000 g/ha, scale 0 to 100
Excerpt: as §1

[4] = tested on: Avena fatua; experiment: as above; conditions: 1000 g/ha, scale 0 to 100
Excerpt: as §1

[5] = tested on: Setaria viridis; experiment: as above; conditions: 1000 g/ha, scale 0 to 100
Excerpt: as §1

[6] = tested on: Amaranthus retroflexus; experiment: as above; conditions: 1000 g/ha, scale 0 to 100
Excerpt: as §1

[7] = tested on: Abutilon theophrasti; experiment: greenhouse pre-emergence treatment, herbicidal activity; conditions: pre-emergence (values labeled *), 1000 g/ha, scale 0 to 100
Excerpt: (§2) The seeds of the test plants were sown separately for each species. For the pre-emergence treatment, the active ingredients, which had been suspended or emulsified in water, were applied directly after sowing by means of finely distributing nozzles. The containers were irrigated gently to promote germination and growth and subsequently covered with transparent plastic hoods until the plants had rooted. This cover caused uniform germination of the test plants, unless this has been impaired by the active ingredients. Depending on the species, the plants were kept at 10-25° C. or 20-35° C. The test period extended over 2 to 4 weeks. During this time, the plants were tended, and their response to the individual treatments was evaluated. Evaluation was carried out using a scale from 0 to 100. 100 means no emergence of the plants, or complete destruction of at least the aerial moieties, and 0 means no damage, or normal course of growth. A good herbicidal activity is given at values of at least 70 and a very good herbicidal activity is given at values of at least 85. The plants used in the greenhouse experiments belonged to the following species: [table]

[8] = tested on: Setaria faberi; experiment: as above; conditions: pre-emergence (values labeled *), 1000 g/ha, scale 0 to 100
Excerpt: as §2

[9] = tested on: Agrostis spica-venti; experiment: as above; conditions: pre-emergence (values labeled *), 1000 g/ha, scale 0 to 100
Excerpt: as §2

[10] = tested on: Amaranthus retroflexus; experiment: as above; conditions: pre-emergence (values labeled *), 1000 g/ha, scale 0 to 100
Excerpt: as §2

[11] = tested on: Echinochloa crus-galli; experiment: as above; conditions: pre-emergence (values labeled *), 1000 g/ha, scale 0 to 100
Excerpt: as §2

Compound	damage [%] in weed species II (ALOMY) [1]	damage [%] in weed species VI (ECHCG) [2]	damage [%] in weed species I (ABUTH) [3]	damage [%] in weed species V (AVEFA) [4]	damage [%] in weed species VIII (SETVI) [5]	damage [%] in weed species III (AMARE) [6]	damage [%] in weed species I (ABUTH) [7]	damage [%] in weed species VII (SETFA) [8]	damage [%] in weed species IV (APESV) [9]	damage [%] in weed species III (AMARE) [10]	damage [%] in weed species VI (ECHCG) [11]
CSc1c(Cl)cc(F)c(C(=O)Nc2nncn2C)c1Cl [cpd. 4, 2,4-dichloro-6-fluoro-3-methylsulfanyl-N-(4-methyl-1,2,4-triazol-3-yl)benzamide]	90%	95%	100%	90%	100%	100, 100* %	70%	70* %	70* %	100, 100* %	
Cn1cnnc1NC(=O)c1c(F)cc(Cl)c(S(C)(=O)=O)c1Cl [cpd. 5, 2,4-dichloro-6-fluoro-3-methylsulfonyl-N-(4-methyl-1,2,4-triazol-3-yl)benzamide]	85%	98%	98%		95%	90%	80%	85* %	70* %	85%	80%
CCn1cnnc1NC(=O)c1c(F)cc(Cl)c(SC)c1Cl [cpd. 3, 2,4-dichloro-N-(4-ethyl-1,2,4-triazol-3-yl)-6-fluoro-3 methyl-sulfanyl-benzamide]		98%	100%	80%	100%	100%	90%	70* %		90%	75%
CCn1cnnc1NC(=O)c1c(F)cc(Cl)c(S(C)(=O)=O)c1Cl [cpd. 2, 2,4-dichloro-N-(4-ethyl-1,2,4-triazol-3-yl)-6-fluoro-3-methyl-sulfonyl-benzamide]		90%	100%	75%	100%	75%		85* %	80* %	95%	98%
